Results as given in patent US20250059186A1, “Tricyclic Fused Heterocyclic PDE3/4 Dual Inhibitor and Use Thereof” (XIZANG HAISCO PHARMACEUTICAL CO., LTD., priority 2021, published 2025).
Read-outs that look alike come from different tables or passages of the source.

What was measured:
[1] = test system: methacholine-induced bronchoconstriction; test: Inhibitory effect on methacholine-induced bronchoconstriction in guinea pigs (WBP, Penh); format: in vivo, guinea pig; details: male guinea pigs, oral dose of 10 mg/kg, 6 h after drug exposure
Description: 2. Study on the Inhibitory Effect of Compounds on Methacholine-Induced Bronchoconstriction in Guinea Pigs
Male guinea pigs were selected as test animals in this study. The drug-treated group was orally administered with RPL554, compound 1 and compound 7 at a dose of 10 mg/kg, respectively, and the control group was administered with an equal dose of solvent. The animals were placed in a WBP instrument aerosol chamber 2 h, 4 h and 6 h after drug exposure. After the animals were adapted, they inhaled 300 μL of […] solution (0.5 mg/mL) by nebulization. After the end of the methacholine (Mch) exposure, Penh values were recorded continuously for 7 minutes. The percentage of bronchoconstriction inhibition by the compounds was calculated based on the Penh values.

[2] = test system: guinea pig tracheal rings; test: Experiment on guinea pig tracheal rings (carbachol constriction); details: 10 μM single dose; for OT50 (50% inhibition onset time) / RT50 (50% inhibition recovery time): carbachol-constricted tracheal rings; for inhibition at 10 µM: Cavia porcellus, 6.75 h
Description: 3. Experiment on Guinea Pig Tracheal Rings
Experimental method: guinea pig tracheal rings were placed in a specific culture medium (Krebs-Henseleit) and balanced under 1 g tension for 40 minutes; carbachol was added in an amount sufficient to achieve 100% constriction of the tracheal rings; […] contractile tension of the tracheal rings.

[3] = cited from earlier work
[4] = in vivo; cited from earlier work
[5] = test system: PDE4; details: cited from earlier work
[6] = biological target: PDE3A recombinant enzyme (Homo sapiens (Human), UniProt Q14432); test: In vitro assay of inhibitory activity against PDE 3A enzyme (FP, FAM-cAMP); format: biochemical
Sequence of PDE3A recombinant enzyme (Q14432 whole entry): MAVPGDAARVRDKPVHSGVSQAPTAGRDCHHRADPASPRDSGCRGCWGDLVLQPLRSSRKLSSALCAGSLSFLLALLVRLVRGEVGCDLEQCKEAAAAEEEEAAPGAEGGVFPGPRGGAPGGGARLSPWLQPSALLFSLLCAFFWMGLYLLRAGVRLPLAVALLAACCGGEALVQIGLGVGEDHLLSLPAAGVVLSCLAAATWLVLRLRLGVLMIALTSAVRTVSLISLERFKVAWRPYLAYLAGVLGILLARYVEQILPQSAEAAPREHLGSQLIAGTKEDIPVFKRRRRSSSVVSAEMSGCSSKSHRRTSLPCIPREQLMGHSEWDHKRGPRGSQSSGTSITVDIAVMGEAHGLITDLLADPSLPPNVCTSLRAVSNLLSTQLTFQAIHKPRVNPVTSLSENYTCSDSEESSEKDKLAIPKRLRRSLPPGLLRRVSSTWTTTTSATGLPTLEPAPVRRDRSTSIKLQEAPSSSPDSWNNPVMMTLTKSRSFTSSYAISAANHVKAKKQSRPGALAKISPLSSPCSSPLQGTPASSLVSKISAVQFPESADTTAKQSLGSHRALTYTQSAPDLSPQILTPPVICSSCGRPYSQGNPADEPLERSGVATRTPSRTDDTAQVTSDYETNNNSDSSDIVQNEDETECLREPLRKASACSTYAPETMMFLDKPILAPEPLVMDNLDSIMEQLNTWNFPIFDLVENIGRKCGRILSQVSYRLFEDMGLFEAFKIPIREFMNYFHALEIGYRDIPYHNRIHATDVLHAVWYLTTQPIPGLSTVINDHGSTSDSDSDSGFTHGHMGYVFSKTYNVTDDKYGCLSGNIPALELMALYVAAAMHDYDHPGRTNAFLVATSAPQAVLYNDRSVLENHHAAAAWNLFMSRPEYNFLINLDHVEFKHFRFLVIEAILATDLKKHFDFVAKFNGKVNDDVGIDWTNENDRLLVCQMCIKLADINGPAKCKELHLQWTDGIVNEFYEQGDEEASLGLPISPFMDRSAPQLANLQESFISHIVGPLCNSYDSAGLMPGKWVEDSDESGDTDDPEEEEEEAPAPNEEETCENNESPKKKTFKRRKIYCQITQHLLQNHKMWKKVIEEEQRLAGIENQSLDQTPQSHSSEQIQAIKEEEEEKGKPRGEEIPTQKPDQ
Description: 1. In Vitro Assay of the Inhibitory Activity of Compounds Against PDE 3A and PDE 4B2 Enzymes
• Envision 2104 Multilabel Reader (PerkinElmer) • Black 96-well Plate (Cat #6005540, PerkinElmer) • PDE3A Assay Kit (BPS, Cat. 79736), PDE4B2 Assay Kit (BPS, Cat. 60343) • PDE3A recombinant enzyme • PDE4B2 recombinant enzyme • FAM-Cyclic-3′, 5′-AMP • PDE assay buffer • Binding Agent • Binding Agent Diluent (cAMP)
• 1) Prepare FAM cAMP working solution: 20 μL of FAM-Cyclic-3′, 5′-AMP stock was added to 1980 μL of PDE assay buffer. The mixture was added to all wells at 25 μL/well. • 2) Prepare compound solution: the test compounds were dissolved in DMSO to make a 10 mM stock solution. The compound stock solution was diluted in DMSO to a 100× Top Dose diluent. 5 μL of 100× Top Dose diluent was added to 45 μL of PDE assay buffer to prepare a compound Top Dose working solution. Then, the compound working solution was subjected to double dilution with PDE assay buffer containing 10% DMSO to prepare compound working solutions of various concentrations. The compound working solutions were added to compound wells at 5 μL/well. 5 μL of PDE assay buffer containing 10% DMSO was added to each control well. • 3) Prepare PDE enzyme solution: PDE3A and PDE4B2 enzyme stock solutions were diluted to 150 pg/μL and 50 pg/μL, respectively, with PDE assay buffer, and added to all compound wells and Vehicle control wells at 20 μL/well. 20 μL of PDE assay buffer was added to Blank control wells. • 4) React at room temperature for 1 h. • 5) Prepare Binding Agent: 80 μL of binding agent was added to 7920 μL of binding agent diluent, and the mixture was mixed well and added to all wells at 100 μL/well. • 6) React at room temperature for 1 h. • 7) Read FP on Envision. • 8) Calculation formula for original data:
[formula] • FPS=sample FP • FPV=Vehicle control FP • FPB=Blank control FP.
Nonlinear regression analysis of log[dose]-inhibition rate was performed by graphpad and IC50 was calculated.

[7] = class symbols, read-out: PDE 3A IC50
[8] = values in text, read-out: PDE 3 IC50

Row | Structure (SMILES) | Inhibition rate on bronchoconstriction [1] [%] | OT50 (50% inhibition onset time) [2] [min] | RT50 (50% inhibition recovery time) [2] [h] | inhibition at 10 µM [2] [%] | IC50 [6, 7] [µM] | IC50 [6, 8] [µM] | other results
1 | COc1cc2c(cc1OC)-c1c/c(=N\c3c(C)cc(C)cc3C)n(CCNC(N)=O)c(=O)n1CC2 [RPL554, reference compound] | 35 | 25.51 | >6.75 | 56.7 |  |  | solubility [3]: poor solubility; plasma clearance [4]: high plasma clearance; PDE4 inhibitory activity [5]: unsatisfactory
2 | [2H]C([2H])([2H])Oc1cc2c(cc1OC)CCn1c-2c/c(=N\c2c(C)cc(C)cc2C)n(CCNC(N)=O)c1=O [Compound 7, (E)-1-(2-(2-(mesitylimino)-9-methoxy-10-(methoxy-d3)-4-oxo-6,7-dihydro-2H-pyrimido[6,1-a]isoquinolin-3(4H)-yl)ethyl)urea] | 80 | 19.97 | >6.75 | 75.9 | < 0.05 | 0.00017 | 
3 | COc1cc2c(cc1OC)-c1c/c(=N\c3c(C)cc(C4CC4)cc3C)n(CCNC(N)=O)c(=O)n1CC2 [Compound 3, (E)-1-(2-(2-((4-cyclopropyl-2,6-dimethylphenyl)imino)-9,10-dimethoxy-4-oxo-6,7-dihydro-2H-pyrimido[6,1-a]isoquinolin-3(4H)-yl)ethyl)urea] |  |  |  |  | < 0.05 |  | 
4 | COc1cc2c(cc1OC)-c1c/c(=N\c3c(C)cc(F)cc3C)n(CCNC(N)=O)c(=O)n1CC2 [Compound 5, (E)-1-(2-(2-((4-fluoro-2,6-dimethylphenyl)imino)-9,10-dimethoxy-4-oxo-6,7-dihydro-2H-pyrimido[6,1-a]isoquinolin-3(4H)-yl)ethyl)urea] |  |  |  |  | 0.05 to 0.1 |  | 
5 | COc1cc2c(cc1OC)-c1c/c(=N\c3c(C)cc(C(F)(F)F)cc3C)n(CCNC(N)=O)c(=O)n1CC2 [Compound 2, (E)-1-(2-(2-((2,6-dimethyl-4-(trifluoromethyl)phenyl)imino)-9,10-dimethoxy-4-oxo-6,7-dihydro-2H-pyrimido[6,1-a]isoquinolin-3(4H)-yl)ethyl)urea] |  |  |  |  |  |  | IC50 [6]: 0.05 to 0.1 µM
6 | [2H]C([2H])([2H])Oc1cc2c(cc1OC)-c1c/c(=N\c3c(C)cc(C)cc3C)n(CCNC(N)=O)c(=O)n1CC2 [Compound 1, (E)-1-(2-(2-(mesitylimino)-10-methoxy-9-(methoxy-d3)-4-oxo-6,7-dihydro-2H-pyrimido[6,1-a]isoquinolin-3(4H)-yl)ethyl)urea] | 69 |  |  |  | < 0.05 | 0.00015 | 
